Source: patent US11530458B2, “Methods of using multi-ligand metal complexes to perform oxidative catalytic pretreatment of lignocellulosic biomass” (Board of Trustees of Michigan State University, priority 2014, dated 2022)

Experiments:
[1] = Catalytic AOP pretreatment of hybrid poplar with multi-ligand catalysts, then enzymatic hydrolysis (glucose conversion); design: species or system Populus nigra var. charkoviensis×caudina cv. NE-19; conditions: for Glucose (Glucose Conversions): hybrid poplar, 270 mM NaOH, 10% H2O2, 24 hrs 30° C.
Procedure: Enzymatic hydrolysis was performed on the solid poplar slurry at 50° C. in the same rotary shaker used for the extraction step. In preparation for hydrolysis, 20 μL of 72% (w/w) H2SO4 and 500 μL of 1 M sodium citrate buffer (pH 5) (prepared from sodium citrate and citric acid) were added to the solid poplar slurry to adjust the pH to 5 (optimum pH for the enzymes being used herein). Thereafter, 40 μL of 10 mM tetracycline (Sigma-Aldrich) stock solution was added to the solid poplar slurry to inhibit microbial growth. This step was followed by addition of a Cellic CTec2 and HTec2 (Novozymes A/S, Bagsværd, DK) enzyme cocktail at a loading of 30 mg protein/g glucan in the biomass prior to extraction and catalytic pretreatment, unless otherwise noted. The enzymatic reaction (50° C., 210 rpm, 72 hrs) was carried out at 5% solids concentration by adjusting the volume of the poplar slurry to 10 mL via the addition of deionized water.
Following enzymatic hydrolysis, the resulting solid and liquid phases were separated by centrifugation in same manner as in Example 2, to produce separated hydrolyzed solid and liquid phases. The amount of glucose and xylose released into the aqueous phase was quantified by High Performance Liquid Chromatography (HPLC) (Agilent 1260 Series equipped with an Aminex® HPX-87H column operating at 65° C., a mobile phase of 0.05 M H2SO4, and a flow rate of 0.6 mL per minute, and detection by refractive index). The yield of glucose and xylose released was defined as the amount of solubilized monosaccharide divided by the total sugar content of the poplar biomass prior to incubation and catalytic pretreatment as determined by chemical composition analysis.
Hybrid poplar (0.5 g) (same source as Example 2) was catalytically pretreated using 1 mM of a stock solution of multi-ligand copper complex, namely copper (II) 2,2′ bipyridine ethylenediamine (Cu(bpy)en) containing 40 mM copper sulphate pentahydrate, 40 mM bipyridine and 40 mM ethylenediamine in deionized water, together with 270 mM NaOH and 10% H2O2 loading (w/w) on biomass in a total 5 mL volume made with deionized water. Other components of the pretreatment catalyst include tetraacetylethylenediamine (TAED), ethylenediaminetetraacetic acid (EDTA), manganese sulfate, and magnesium sulfate. The catalytic pretreatment was allowed to proceed for approximately 24 hrs at 30° C.
Thereafter, the resulting poplar slurry was pH adjusted to 5 and hydrolyzed according to the process described in Example 3. Following enzymatic hydrolysis, the solid and liquid phases were separated by centrifugation as described in Example 3.

[2] = Catalytic AOP pretreatment of alkali-extracted switchgrass, then enzymatic hydrolysis (glucose yield); design: species or system Panicum virgatum; conditions: 24 hr AOP pretreatment of AESG, catalyst concentration per table
Procedure: Screening of various metal ligand complexes (hereinafter “catalysts”) was performed via catalytic alkaline oxidative pretreatment (AOP) pretreatment of alkali-extracted switchgrass (AESG). To prepare AESG, 80 grams of untreated switchgrass (Panicum virgatum, cv. Cave-In-Rock, hammer milled to pass a 5-mm screen, and stored at a moisture content of approximately 5%) was soaked in an aqueous solution of 5 g/L NaOH at 80° C. for 2 hrs. The weight-to-volume (w/v) solids loading of switchgrass during alkaline extraction was 10% (e.g., 10 g of biomass in 100 mL NaOH solution). […] The washed solids was recovered as AESG and air-dried for over 7 days.
[Al(III)(3,5-^tBu2-salophen)Cl] [3,5-^tBu2-salophen=N,N′-bis(3,5-di-tert-butylsalicylidene)-1,2-phenylenediamine], [Zn(II)(BPPA)Cl]Cl [BPPA=N,N-bis(6-pivaloylamido-2-pyridylmethyl)-N-(2-pyridylmethyl)amine], and [NEt4][Fe(III)(bpb)Cl2]
To study the effect of catalytic AOP pretreatment on AESG, pretreatment was performed in a 100 g/L aqueous suspension of AESG in the presence of each catalyst. […] After 24 hrs of incubation at 30° C. without mixing, the pretreated switchgrass slurry was washed using deionized water to remove the alkaline phosphate buffer.
The enzymatic digestibility of AOP-pretreated switchgrass was estimated by the yield of glucose during the enzymatic hydrolysis of AOP pretreated AESG. The percentage yield was calculated on the basis of the glucan content in AESG prior to catalytic AOP pretreatment.
For enzymatic hydrolysis, 500 μL of 1 M Na-citrate buffer (pH 5) and 40 μL of 10 mM tetracycline (Sigma-Aldrich) were added to AOP-AESG that was not dried after catalytic AOP pretreatment. Accellerase 1500 (42 FPU/mL; Danisco-Genencor, Palo Alto, Calif.) was added at 50 mg protein per gram of glucan in AESG. The total volume of the mixture (solid and liquid) was adjusted with deionized water to reach a 5% (w/v) solids concentration, and the samples were incubated at 50° C. during hydrolysis.

[3] = catalyst concentration not given

| Compound | Glucose yield of enzymatic hydrolysis (% of theoretical maximum) ([2]; pH 3, 24 hrs hydrolysis) | Glucose yield of enzymatic hydrolysis (% of theoretical maximum) ([2]; pH 3, 72 hrs hydrolysis) | Glucose yield of enzymatic hydrolysis (% of theoretical maximum) ([2]; pH 11, 24 hrs hydrolysis) | Glucose yield of enzymatic hydrolysis (% of theoretical maximum) ([2]; pH 11, 72 hrs hydrolysis) | Glucose yield of enzymatic hydrolysis (% of theoretical maximum) ([2]; pH 10, 24 hrs hydrolysis) | further results |
| --- | --- | --- | --- | --- | --- | --- |
| NCCN.[Cu+2].c1ccc(-c2ccccn2)nc1 [Cu(bpy)en, copper (II) 2,2′ bipyridine ethylenediamine] | – | – | – | – | – | Glucose (Glucose Conversions) ([1]; catalyst 1 mM): 55.00; Glucose (Glucose Conversions) ([1]; catalyst 2 mM): 48.15; Glucose yields compared to other catalyst systems ([1]; in words): higher glucose yields compared to other catalyst systems tested |
| O=S(=O)([O-])[O-].[Cu+2] [CuSO4, copper sulfate] | – | – | – | – | – | Glucose (Glucose Conversions) [1, 3]: 40.62 |
| Fc1c(F)c(F)c(-c2c3nc(c(-c4c(F)c(F)c(F)c(F)c4F)c4ccc([nH]4)c(-c4c(F)c(F)c(F)c(F)c4F)c4nc(c(-c5c(F)c(F)c(F)c(F)c5F)c5ccc2[nH]5)C=C4)C=C3)c(F)c1F.[Fe+3] [Fe(III)-tetrakis-pentafluorophenyl)-porphyrin] | 29.18 ± 0.33 % of theoretical maximum | 35.38 ± 0.43 % of theoretical maximum | 35.37 ± 0.45 % of theoretical maximum | 40.25 ± 0.19 % of theoretical maximum | – | – |
| C1=Cc2nc1c(-c1ccccc1)c1ccc([nH]1)c(-c1ccccc1)c1nc(c(-c3ccccc3)c3ccc([nH]3)c2-c2ccccc2)C=C1.[Fe+3] [Fe(III)-tetraphenylporphyrin] | 31.55 ± 1.6 % of theoretical maximum | 42.13 ± 1.89 % of theoretical maximum | 36.98 ± 1.3 % of theoretical maximum | 42.14 ± 0.63 % of theoretical maximum | – | – |
| O=S(=O)([O-])[O-].[Mg+2] [MgSO4, magnesium sulfate] | – | – | – | – | – | Glucose (Glucose Conversions) [1, 3]: 25.17 |
| CC(C)(C)c1cc(C=Nc2ccccc2N=Cc2cc(C(C)(C)C)cc(C(C)(C)C)c2[O-])c([O-])c(C(C)(C)C)c1.[Al+3].[Cl-] [[Al(III)(3,5-^tBu2-salophen)Cl]] | – | – | 29.80 ± 0.25 % of theoretical maximum | – | 28.90 ± 0.17 % of theoretical maximum | Glucose yield of enzymatic hydrolysis (% of theoretical maximum) ([2]; pH 13, 24 hrs hydrolysis): 34.19 ± 0.41 % of theoretical maximum |
| CC[N+](CC)(CC)CC.O=C([N-]c1ccccc1[N-]C(=O)c1ccccn1)c1ccccn1.[Cl-].[Cl-].[Fe+3] [[NEt4][Fe(III)(bpb)Cl2]] | – | – | 27.44 ± 1.54 % of theoretical maximum | 31.54 ± 0.23 % of theoretical maximum | 25.54 ± 0.21 % of theoretical maximum | Glucose yield of enzymatic hydrolysis (% of theoretical maximum) ([2]; pH 9, 24 hrs hydrolysis): 27.07 ± 0.6 % of theoretical maximum; Glucose yield of enzymatic hydrolysis (% of theoretical maximum) ([2]; pH 9, 72 hrs hydrolysis): 34.27 ± 0.21 % of theoretical maximum; Glucose yield of enzymatic hydrolysis (% of theoretical maximum) ([2]; pH 10, 72 hrs hydrolysis): 31.97 ± 0.13 % of theoretical maximum |
| CC(C)(C)C(=O)Nc1cccc(CN(Cc2ccccn2)Cc2cccc(NC(=O)C(C)(C)C)n2)n1.[Cl-].[Cl-].[Zn+2] [[Zn^II(BPPA)Cl]Cl, [Zn(II)(BPPA)Cl]Cl] | – | – | 27.33 ± 0.62 % of theoretical maximum | – | 26.43 ± 0.31 % of theoretical maximum | Glucose yield of enzymatic hydrolysis (% of theoretical maximum) ([2]; pH 13, 24 hrs hydrolysis): 33.36 ± 0.3 % of theoretical maximum |
| Fe(III)-phthalocyanine | 30.91 ± 0.24 % of theoretical maximum | 36.80 ± 2.84 % of theoretical maximum | 34.21 ± 0.23 % of theoretical maximum | 38.75 ± 1.52 % of theoretical maximum | – | – |
